Patent US6495171B2, “Interleukin-4 production inhibitors” (Kao Corporation, priority 1999, dated 2002)

Tests used:
IL-4 production = assay: Measurement of IL-4 production inhibiting ability (KLH-stimulated lymphocytes, ELISA); format: cell-based; conditions: lymph node lymphocytes of KLH-sensitized Balb/c mice, KLH 10 μg/mL, 3 days, IL-4 in supernatant by ELISA; for IC50: Mus musculus, Lymphocyte, 72 h, read-out: IC50 (concentrations at which IL-4 yields were inhibited by 50%)
Protocol: A 4 mg/mL solution of KLH (Keyhole Limpet Hemocyanin; product of Pierce Chemical Company) and Freund complete adjuvant FCA (Bacto Adjuvant Complete Freund; product of DIFCO) were mixed and emulsified at a volume ratio of 1:1. The resulting emulsion was subcutaneously injected at 200 μL/head to the foreleg paws and hind leg paws of Balb/c mice (female, 8 to 12 weeks old), whereby the mice were sensitized. About 7 days later, axillary and popliteal lymph nodes were excised. After the lymph nodes were washed in PBS, they were loosened between two slide glasses in RPMI medium which had been prepared by adding kanamycin and β-mercapto-ethanol to “RPMI 1640 Medium” (product of BRL) such that their final concentrations became 100 μg/mL and 100 μM, respectively, whereby a suspension of lymphocytes was prepared. The lymphocyte suspension was centrifuged twice at 1,000 rpm for 5 minutes, followed by suspension in the RPMI medium added with 10% FCS. The lymphocytes were spread at 4×10^5 lymphocytes/well over 96-well plates. Individual compounds or essential oils, which had been prepared at varied concentrations with 10% FCS-added RMPI medium, were added within a final concentration range of from 0.01 to 100 μg/mL. Subsequent to incubation at 37° C. for about 30 minutes in the presence of 5% CO2, KLH was added to give a final concentration of 10 μg/mL. After incubation at 37° C. for 3 days in the presence of 5% CO2, IL-4 in each supernatant was quantitated by ELISA.
For the ELISA quantitation, “Mice IL-4 ELISA Kit” (product of Amersham Corp.) was used. Following a protocol attached to the kit, the quantitation was conducted using recombinant IL-4 as a standard substance. IL-4 production inhibition rates of the individual compounds at the varied concentrations were calculated [100-(IL-4 yield when the sample was added/IL-4 yield in a control added only with the culture medium)×100]. From the IL-4 production inhibition rates, IC50 values (concentrations at which IL-4 yields were inhibited by 50%) were determined.

[1] = test system: allergy to house dust mite antigen; assay: Effects on allergy to house dust mite antigen (ear swelling); format: in vivo, Balb/c mice; conditions: for Swelling inhibition rate (%): 20 μL topically on ear, 24 h after challenge; for inhibitory effects for allergy to the house dust mite antigen (in words): concentrations of 0.1% and 1.0%, statistically significant at 1% or 5% significance level
Protocol: Tape stripping was applied 8 times with an adhesive cellophane tape (product of Nichiban Co., Ltd.) to shaved abdominal parts of Balb/c mice (female). The abdominal parts were coated with 50-μL portions of a house dust mite antigen, which had been obtained by dialyzing an allergen scratch extract “DANI” (product of Torii Pharmaceutical Co., Ltd.) and then concentrating the dialyzate ten-fold by ultrafiltration, so that the mice were sensitized. One, four, five and six days later, 20 μL portions of cedrol, cumin oil and cedarwood oil of concentrations shown in Table 2 (prepared by dissolving them in 70% ethanol solution) were topically applied onto one ears, respectively, and the same amount of the solvent control (70% ethanol solution) was applied at the others. Seven days after the sensitization, the mice were challenged on the dorsal ear lobe by subcutaneous injection of 10 μL of the same angiten solution. To measure ear swelling caused by nonspecific stimulation with the house dust mite antigen, 10-μL portions of the house dust mite antigen were subcutaneously injected to one ear lobes of unsensitized mice. Three and twenty hours after the stimulation, the ear lobes of the anesthetized mice were covered with pieces of paper towel soaked with purified water of 40° C., respectively. After that, 20 μL portions of the individual compounds were topically applied to one ears, respectively, while to the other, the same amount of the solvent control were applied. Twenty-four hours after stimulation, the thicknesses of the ears were measured by a thickness gauge, and differences from the thicknesses of the corresponding ears before the stimulation were recorded as ear swellings. Each ear swelling inhibition rate (%) was determined by the following formula: [ear swelling (solvent control)−ear swelling (sample)]/[ear swelling (solvent control)−ear swelling (nonspecific stimulation by the house dust mite antigen)]×100. Differences in swelling between the ear applied with the solvent control and the corresponding ears applied with the samples, respectively, were statistically analyzed by t-test, and any difference with significance level lower than 5% was considered statistically significant.

Row | Compound | IC50 (concentrations at which IL-4 yields were inhibited by 50%) (IL-4 production) | IC50 (IL-4 production) | other results
1 | C[C@H]1CC[C@@]2(O)C(C)(C)[C@@H]3CC[C@@]2(C)[C@H]1C3 [Patchouli alcohol] | 0.72 µg/mL | – | –
2 | Thujopsenol | 3.60 µg/mL | – | –
3 | C[C@@H]1CC[C@@H]2[C@@H]1[C@H]1[C@@H](CC[C@@]2(C)O)C1(C)C [Globulol] | – | 1.08 µg/mL | Swelling inhibition rate (%) ([1]; Concentration 0.01 W/V %): 11%; Swelling inhibition rate (%) ([1]; Concentration 0.10 W/V %): 19%; Swelling inhibition rate (%) ([1]; Concentration 1.00 W/V %): 26%; inhibitory effects for allergy to the house dust mite antigen (in words) [1]: marked effects
4 | C=CCc1ccc(O)c(OC)c1 [Eugenol] | – | 5.6 µg/mL | –
5 | C[C@H]1CC[C@@H](C(C)(C)O)CC2=C1CC[C@@H]2C [Guaiol] | 0.68 µg/mL | – | –
6 | CC(C)=CCCC(C)=CCCC(C)=CCO [Farnesol] | – | 0.59 µg/mL | –
7 | Epiglobulol | 1.14 µg/mL | – | –
8 | CC(=O)O[C@]1(C)CC[C@@]23C[C@@H]1C(C)(C)[C@@H]2CC[C@H]3C [Cedryl acetate] | – | 0.78 µg/mL | –
9 | CC(=O)C1=C(C)[C@@H]2C[C@@]3(C1)[C@H](C)CC[C@H]3C2(C)C [Acetylcedrene] | 1.60 µg/mL | – | –
10 | C[C@@H]1CC[C@H]2C(C)(C)[C@H]3C[C@@]12CC[C@@]3(C)O [Cedrol] | – | 3 µg/mL | Swelling inhibition rate (%) ([1]; Concentration 0.01 W/V %): 8%; Swelling inhibition rate (%) ([1]; Concentration 0.10 W/V %): 14%; Swelling inhibition rate (%) ([1]; Concentration 1.00 W/V %): 13%; inhibitory effects for allergy to the house dust mite antigen (in words) [1]: marked effects
11 | CC1(C)CCC[C@@]2(C)CC[C@](C)(O)CC=C12 [Widdrol] | 4.00 µg/mL | – | –
12 | CCOCC(O)COc1ccc(NC(=O)CC[S+](C)C)cc1 (stereo not shown) [Suplatast tosilate, reference compound] | – | 50 µg/mL | –
13 | CC(C)c1cccc(=O)c(O)c1 [Hinokitiol] | – | 0.1 µg/mL | –
14 | Cedrenol | 3.34 µg/mL | – | –
15 | CC1CCC(C(C)C)C(O)C1 (stereo not shown) [Menthol] | – | 19.6 µg/mL | –
16 | Santalol | 2.40 µg/mL | – | –
17 | CC(C)=CCCC(C)CCO (stereo not shown) [Citronellol] | – | 37.3 µg/mL | –
